The results in this text go back to patent US20210130549A1, “IPN hydrogel for preparation and application” (EASTING BIOTECHNOLOGY COMPANY LIMITED, priority 2019, published 2021).

The nature of the data set: Hydrophilic drug release from drug-containing IPN hydrogel in sustained-release solution (HPLC, 272 nm). It is filed as physicochemical. The note with it: from release curve FIG. 4; drug-loaded IPN hydrogel; sampling 30 minutes to 72 hours.

Method: The drug-containing hydrogel was placed in a sustained-release solution for drug release testing and taking the samples from sustained-release solution within a fixed time.
Taking the samples with fixed time and test releasing concentration. The sampling time is 30 minutes, 60 minutes, 90 minutes, 180 minutes, 8 hours, 24 hours, 48 hours, and 72 hours.
The subsequent drug concentration was analyzed by high performance liquid chromatography (HPLC). The water-based drug used caffeine for drug release, and the absorption wavelength of caffeine was 272 nm for measurement.

With `Cn1c(=O)c2c(ncn2C)n(C)c1=O` [caffeine], the “release amount of caffeine in water” value is on record as no less than 40%.
